Read-outs that look alike come from different tables or passages of the source.
Test system: respiratory epithelial cells
Details: for expression level change, AQP5 (Probe ID 91275_at) / expression level change, ESTs AI758223 (Probe ID 76769_at) / expression level change, ESTs AI927079 (Probe ID 88716_at) / expression level change, MGC14128 (Probe ID 89360_at) / expression level change, PADI1 (Probe ID 81926_at) / expression level change, ST6GalNAcI (Probe ID 89741_at) / expression level change, CNTN1 (Probe ID 88239_i_at) / expression level change, DKFZP434I1735 (Probe ID 77516_r_at) / expression level change, FLJ10718 (Probe ID 69750_at) / expression level change, LGALS1 (Probe ID 80667_f_at) / expression level change, MGC14128 (Probe ID 86024_at): IL-13 stimulation
[1] = IL-13 vs no stimulation, lot 1 Day 3 AI
[2] = IL-13 vs no stimulation, lot 1 Day 3 IMM

Substance: IL-13: human IL-13 (Peprotech, Inc.) added to the medium at 50 ng/mL to stimulate respiratory epithelial cells
- SLC21A12 (87860_s_at) expression change upon IL-13 stimulation (HG-U95E, lot 2, Day 7): 2.8
- rab11-FIP1 (89338_at) expression change upon IL-13 stimulation (HG-U95E, lot 2, Day 7): 14.6
- AA199856 (72960_s_at) expression change upon IL-13 stimulation (HG-U95E, lot 2, Day 7, AI): 5.5
- AA806114 (80826_at) expression change upon IL-13 stimulation (HG-U95E, lot 2, Day 7, AI): 2
- AI803648 (89255_at) expression change upon IL-13 stimulation (HG-U95E, lot 2, Day 7, AI): 2.4
- AI859144, KIAA1127 (77546_at) expression change upon IL-13 stimulation (HG-U95E, lot 2, Day 7, AI): 9.8
- AI984061 (89834_at) expression change upon IL-13 stimulation (HG-U95E, lot 2, Day 7, AI): 3.1
- AW024819 (72867_at) expression change upon IL-13 stimulation (HG-U95E, lot 2, Day 7, AI): 2.3
- BAL (69619_at) expression change upon IL-13 stimulation (HG-U95E, lot 2, Day 7, AI): 2.4
- BCAT1 (72962_at) expression change upon IL-13 stimulation (HG-U95E, lot 2, Day 7, AI): 3.7
- CLDN1 (77660_at) expression change upon IL-13 stimulation (HG-U95E, lot 2, Day 7, AI): 5.4
- EHF (8S090_at) expression change upon IL-13 stimulation (HG-U95E, lot 2, Day 7, AI): 3
- EHF (85092_g_at) expression change upon IL-13 stimulation (HG-U95E, lot 2, Day 7, AI): 7
- EPPK1 (86507_at) expression change upon IL-13 stimulation (HG-U95E, lot 2, Day 7, AI): 3.2
- FLJ20281 (83376_at) expression change upon IL-13 stimulation (HG-U95E, lot 2, Day 7, AI): 2.6
- FLJ20989 (91420_at) expression change upon IL-13 stimulation (HG-U95E, lot 2, Day 7, AI): 2.1
- FLJ21415 (89902_at) expression change upon IL-13 stimulation (HG-U95E, lot 2, Day 7, AI): 2.7
- FLJ22833 (67329_at) expression change upon IL-13 stimulation (HG-U95E, lot 2, Day 7, AI): 4.2
- GCNT3 (77751_at) expression change upon IL-13 stimulation (HG-U95E, lot 2, Day 7, AI): 2
- KIAA1685 (83541_at) expression change upon IL-13 stimulation (HG-U95E, lot 2, Day 7, AI): 2
- MASL1 (89651_at) expression change upon IL-13 stimulation (HG-U95E, lot 2, Day 7, AI): 4.2
- MFHAS1 (87816_g_at) expression change upon IL-13 stimulation (HG-U95E, lot 2, Day 7, AI): 2.7
- RIG-1 (77749_at) expression change upon IL-13 stimulation (HG-U95E, lot 2, Day 7, AI): 2.3
- SCYA26 (90189_at) expression change upon IL-13 stimulation (HG-U95E, lot 2, Day 7, AI): 29.8
- expression level change, AQP5 (Probe ID 91275_at) (lot 1, Day 3, AI): −7.7
- expression level change, ESTs AI758223 (Probe ID 76769_at) (lot 1, Day 3, AI): −3.6
- expression level change, ESTs AI927079 (Probe ID 88716_at) (lot 1, Day 3, AI): −2.7
- expression level change, MGC14128 (Probe ID 89360_at) (lot 1, Day 3, AI): −2.1
- expression level change, PADI1 (Probe ID 81926_at) (lot 1, Day 3, AI): −6.1
- expression level change, ST6GalNAcI (Probe ID 89741_at) (lot 1, Day 3, AI): −2.5
- expression level change, AQP5 (Probe ID 91275_at) (lot 1, Day 3, IMM): −3.8
- expression level change, ESTs AI758223 (Probe ID 76769_at) (lot 1, Day 3, IMM): −2.1
- expression level change, MGC14128 (Probe ID 89360_at) (lot 1, Day 3, IMM): −2.6
- expression level change, AQP5 (Probe ID 91275_at) (lot 1, Day 7, AI): −3.7
- expression level change, CNTN1 (Probe ID 88239_i_at) (lot 1, Day 7, AI): −2
- expression level change, DKFZP434I1735 (Probe ID 77516_r_at) (lot 1, Day 7, AI): −2
- expression level change, ESTs AI758223 (Probe ID 76769_at) (lot 1, Day 7, AI): −14.8
- expression level change, ESTs AI927079 (Probe ID 88716_at) (lot 1, Day 7, AI): −12.9
- expression level change, FLJ10718 (Probe ID 69750_at) (lot 1, Day 7, AI): −3
- expression level change, LGALS1 (Probe ID 80667_f_at) (lot 1, Day 7, AI): −7.2
- expression level change, MGC14128 (Probe ID 86024_at) (lot 1, Day 7, AI): −4
- expression level change, MGC14128 (Probe ID 89360_at) (lot 1, Day 7, AI): −3.8
- expression level change, PADI1 (Probe ID 81926_at) (lot 1, Day 7, AI): −6.1
- expression level change, ST6GalNAcI (Probe ID 89741_at) (lot 1, Day 7, AI): −2.4
- expression level change, CNTN1 (Probe ID 88239_i_at) (lot 1, Day 7, IMM): −2.7
- expression level change, ESTs AI758223 (Probe ID 76769_at) (lot 1, Day 7, IMM): −15.7
- expression level change, ESTs AI927079 (Probe ID 88716_at) (lot 1, Day 7, IMM): −10.7
- expression level change, FLJ10718 (Probe ID 69750_at) (lot 1, Day 7, IMM): −4.7
- expression level change, LGALS1 (Probe ID 80667_f_at) (lot 1, Day 7, IMM): −5.2
- expression level change, MGC14128 (Probe ID 86024_at) (lot 1, Day 7, IMM): −2.9
- expression level change, MGC14128 (Probe ID 89360_at) (lot 1, Day 7, IMM): −2.9
- expression level change, PADI1 (Probe ID 81926_at) (lot 1, Day 7, IMM): −7.6
- expression level change, ST6GalNAcI (Probe ID 89741_at) (lot 1, Day 7, IMM): −4.3
- expression level change, AQP5 (Probe ID 91275_at) (lot 2, Day 3, AI): −14.3
- expression level change, CNTN1 (Probe ID 88239_i_at) (lot 2, Day 3, AI): −3.8
- expression level change, ESTs AI758223 (Probe ID 76769_at) (lot 2, Day 3, AI): −9.6
- expression level change, ESTs AI927079 (Probe ID 88716_at) (lot 2, Day 3, AI): −7
- expression level change, LGALS1 (Probe ID 80667_f_at) (lot 2, Day 3, AI): −2.5
- expression level change, MGC14128 (Probe ID 86024_at) (lot 2, Day 3, AI): −2.4
- expression level change, PADI1 (Probe ID 81926_at) (lot 2, Day 3, AI): −6.7
- expression level change, ST6GalNAcI (Probe ID 89741_at) (lot 2, Day 3, AI): −8.8
- expression level change, AQP5 (Probe ID 91275_at) (lot 2, Day 7, AI): −7.7
- expression level change, CNTN1 (Probe ID 88239_i_at) (lot 2, Day 7, AI): −3.3
- expression level change, DKFZP434I1735 (Probe ID 77516_r_at) (lot 2, Day 7, AI): −2.7
- expression level change, ESTs AI927079 (Probe ID 88716_at) (lot 2, Day 7, AI): −18.5
- expression level change, FLJ10718 (Probe ID 69750_at) (lot 2, Day 7, AI): −3.6
- expression level change, LGALS1 (Probe ID 80667_f_at) (lot 2, Day 7, AI): −8.2
- expression level change, MGC14128 (Probe ID 86024_at) (lot 2, Day 7, AI): −2.8
- expression level change, MGC14128 (Probe ID 89360_at) (lot 2, Day 7, AI): −4
- expression level change, PADI1 (Probe ID 81926_at) (lot 2, Day 7, AI): −6.8
- expression level change, ST6GalNAcI (Probe ID 89741_at) (lot 2, Day 7, AI): −8.4
- AKR1B10 (37482_at) expression change [1]: −6.5
- AKR1C3 (37399_at) expression change [1]: −3.3
- AREG (34898_at) expression change [1]: −2.3
- BDKRB2 (39310_at) expression change [1]: −2.1
- BENE (33331_at) expression change [1]: −3.7
- CTSL2 (40717_at) expression change [1]: −2.8
- DUSP1 (1005_at) expression change [1]: −2.8
- GABRE (34280_at) expression change [1]: −2
- GPNMB (38379_at) expression change [1]: −3.3
- IGFBP3 (1586_at) expression change [1]: −2.4
- IGFBP3 (37319_at) expression change [1]: −2.7
- IGFBP6 (1736_at) expression change [1]: −3.6
- IMPA2 (36496_at) expression change [1]: −2.8
- LOH11CR2A (38151_at) expression change [1]: −2.1
- MMP9 (31859_at) expression change [1]: −25.5
- MMP10 (1006_at) expression change [1]: −6.3
- MSMB (32149_at) expression change [1]: −8.6
- NDRG1 (36933_at) expression change [1]: −4.9
- NOTCH3 (38750_at) expression change [1]: −2.9
- PFTK1 (36502_at) expression change [1]: −3.9
- PSCA (33792_at) expression change [1]: −6
- RARRES1 (1042_at) expression change [1]: −3.1
- RARRES1 (33505_at) expression change [1]: −2.2
- RDC1 (34288_at) expression change [1]: −4.1
- S100A8 (41096_at) expression change [1]: −5.4
- SEC14L2 (32817_at) expression change [1]: −2.1
- SERPINB5 (862_at) expression change [1]: −2.2
- SERPINE1 (672_at) expression change [1]: −12
- SERPINE1 (38125_at) expression change [1]: −6.9
- STK39 (39120_at) expression change [1]: −3.9
- c-fos (1915_s_at) expression change [1]: −2
- c-fos (1916_s_at) expression change [1]: −2.2
- AKR1B10 (37482_at) expression change [2]: −2.8
- APM2 (32527_at) expression change [2]: −2.1
- AREG (34898_at) expression change [2]: −4.2
